Data published in patent publication US8530653B2, “Enzyme inhibiting compounds” (Chelsea Therapeutics, Inc., priority 2009, dated 2013).

molecular target: T1, human dihydrofolate reductase (DHFR) (Homo sapiens, UniProt P00374); test: Inhibition of human DHFR (spectrophotometric, decrease in absorbance at 340 nm); type: biochemical; settings: recombinant human DHFR 0.2 μg/mL, 0.1 mM dihydrofolate, 0.1 mM NADPH, pH 7.3, 37° C., 1% DMSO, triplicate
T1 sequence (P00374 1-187): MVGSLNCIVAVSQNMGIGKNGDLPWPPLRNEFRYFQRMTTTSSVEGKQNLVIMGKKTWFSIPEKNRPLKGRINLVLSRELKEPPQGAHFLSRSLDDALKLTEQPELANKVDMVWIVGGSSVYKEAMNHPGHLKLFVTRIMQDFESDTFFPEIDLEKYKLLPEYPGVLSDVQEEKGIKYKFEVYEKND
Procedure: The activity of multiple compounds as inhibitors of human dihydrofolate reductase (DHFR) was evaluated. The dry test compounds were dissolved in 100% DMSO at a concentration of 10 mM. For the test assays, the compounds were serially diluted in 100% DMSO and added to the assays so that the final concentration of DMSO in the assays was 1%.
The final assay conditions for the human DHFR assays were: […] KPO4 (pH7.3), 250 mM KCl, 0.1 mM dihydrofolate, 0.1 mM NADPH, 1% DMSO, and 0.2 μg/mL recombinant human DHFR. The final volume of the assay was 800 μL in a semi-micro cuvet.
A decrease in absorbance at 340 nm was monitored for three minutes in a Cary spectrophotometer at 37° C. The concentrations used for each compound across a range of 10,000 to 0.08 nM, depending on the expected level of activity. The assays were done in triplicate for each compound. […] A minimum of seven concentrations were used to generate a curve, and IC50 values were calculated using the Standard Curve Analysis of Sigma Plot Enzyme Kinetics software.

Compound | IC50
Nc1nc(N)c2cc(CCc3ccc(C(=O)NCC[C@@H](O)C[C@@H](O)CC(=O)O)cc3)ccc2n1 [Inventive 1] | 8.65 nM
C=C(CC(NC(=O)c1ccc(CCc2ccc3nc(N)nc(N)c3c2)cc1)C(=O)O)C(=O)O (stereo not drawn) [Comparative, 2-{4-[2-(2,4-diamino-quinazolin-6-yl)-ethyl]-benzoylamino}-4-methylidene-pentanedioic acid, reference compound] | 5.4 nM
Nc1nc(N)c2cc(CCc3ccc(CNCC[C@@H](O)C[C@@H](O)CC(=O)O)cc3)ccc2n1 [Inventive 2] | 670 nM
